# Measured values reported in ChEMBL document CHEMBL4152355, “Novel multi-target compounds in the quest for new chemotherapies against Alzheimer's disease: An experimental and theoretical study” (Bioorg Med Chem, 2018).
# The source made the active and inactive calls. The rule behind the calls is not given here.
# Experiments:
# [1] = Inhibition of Cu2+ induced amyloid beta (1 to 40) fibril aggregation assessed as aggregation level at 100 uM measured on day 10 by UV-visible turbidity method (reference value: 100 +/- 8.72%); parameters: scale not given: the % may be the effect or the level left
# [2] = target: Amyloid-beta precursor protein (Homo sapiens) (UniProt P05067); experiment: Inhibition of self-induced amyloid beta (1 to 40) (unknown origin) fibril aggregation assessed as fluorescence emission at 100 uM measured on day 3 by thioflavin-T based assay
# [3] = Disaggregation of Cu2+ induced amyloid beta (1 to 40) preformed fibrils assessed as aggregation level at 100 uM after 12 days by UV-visible turbidity method (reference value: 120.73 +/- 1.86%)
# HEK293 = experiment: Cytotoxicity against human HEK293 cells assessed as decrease in cell viability after 48 hrs by MTT assay relative to resveratrol; type: cell-based; settings: hek293, 48 h
# [4] = target: Amyloid-beta precursor protein (Homo sapiens) (UniProt P05067); experiment: Inhibition of self-induced amyloid beta (1 to 40) (unknown origin) fibril aggregation assessed as aggregation level at 100 uM measured on day 3 by UV-visible turbidity method; parameters: scale not given: the % may be the effect or the level left
# [5] = Disaggregation of Cu2+ induced amyloid beta (1 to 40) preformed fibrils assessed as fluorescence emission at 100 uM after 4 days by thioflavin-T based assay (reference value: 178.07 +/- 17.24)
# [6] = target: Amyloid-beta precursor protein (Homo sapiens) (UniProt P05067); experiment: Inhibition of self-induced amyloid beta (1 to 40) (unknown origin) fibril aggregation assessed as fluorescence emission at 100 uM measured on day 10 by thioflavin-T based assay; parameters: reference not given here
# [7] = target: Amyloid-beta precursor protein (Homo sapiens) (UniProt P05067); experiment: Induction of amyloid beta (1 to 40) (unknown origin) amorphous aggregation at 100 uM after 10 days
# [8] = Metal chelating activity assessed as compound-Cu2+ adduct formation at 20 uM by spectrophotometric titration analysis
# [9] = Cytotoxicity against human HEK293 cells assessed as decrease in cell viability after 48 hrs by MTT assay; type: cell-based; settings: read-out: LD50
# [10] = Inhibition of Cu2+ induced amyloid beta (1 to 40) fibril aggregation assessed as fluorescence emission at 100 uM measured on day 7 by thioflavin-T based assay (reference value: 181.04 +/- 1.74)
# [11] = target: Amyloid-beta precursor protein (Homo sapiens) (UniProt P05067); experiment: Disaggregation of self-induced amyloid beta (1 to 40) (unknown origin) preformed fibrils assessed as aggregation level at 100 uM after 12 days by UV-visible turbidity method
# [12] = Inhibition of Cu2+ induced amyloid beta (1 to 40) fibril aggregation assessed as fluorescence emission at 100 uM measured on day 10 by thioflavin-T based assay (reference value: 412.11 +/- 35.93)
# [13] = Inhibition of Cu2+ induced amyloid beta (1 to 40) fibril aggregation assessed as aggregation level at 100 uM measured on day 7 by UV-visible turbidity method (reference value: 100 +/- 0.96%); parameters: scale not given: the % may be the effect or the level left
# [14] = Disaggregation of Cu2+ induced amyloid beta (1 to 40) preformed fibrils assessed as fluorescence emission at 100 uM after 12 days by thioflavin-T based assay (reference value: 150.21 +/- 2.32)
# [15] = Metal chelating activity assessed as compound-Cu2+ adduct formation by spectrophotometric analysis
# [16] = Disaggregation of Cu2+ induced amyloid beta (1 to 40) preformed fibrils assessed as aggregation level at 100 uM after 4 days by UV-visible turbidity method (reference value: 143.11 +/- 0.76%)
# [17] = Metal chelating activity assessed as inhibition of Cu2+ induced amyloid beta (1 to 40) aggregation by measuring decrease in ROS production at 2 equiv after 75 mins by fluorescence assay
# [18] = target: Amyloid-beta precursor protein (Homo sapiens) (UniProt P05067); experiment: Disaggregation of self-induced amyloid beta (1 to 40) (unknown origin) preformed fibrils assessed as fluorescence emission at 100 uM after 4 days by thioflavin-T based assay; parameters: reference not given here
# [19] = target: Amyloid-beta precursor protein (Homo sapiens) (UniProt P05067); experiment: Disaggregation of self-induced amyloid beta (1 to 40) (unknown origin) preformed fibrils assessed as fluorescence emission at 100 uM after 12 days by thioflavin-T based assay; parameters: reference not given here
# [20] = Inhibition of Cu2+ induced amyloid beta (1 to 40) fibril aggregation assessed as aggregation level at 100 uM measured on day 3 by UV-visible turbidity method (reference value: 100 +/- 17.24%); parameters: scale not given: the % may be the effect or the level left
# Tetrahymena thermophila = experiment: Toxicity in Tetrahymena thermophila assessed as decrease in viability after 48 hrs by MTT assay relative to resveratrol; type: organism-based; settings: in vivo
# [21] = target: Amyloid-beta precursor protein (Homo sapiens) (UniProt P05067); experiment: Inhibition of self-induced amyloid beta (1 to 40) (unknown origin) fibril aggregation assessed as aggregation level at 100 uM measured on day 10 by UV-visible turbidity method; parameters: scale not given: the % may be the effect or the level left
# [22] = target: Amyloid-beta precursor protein (Homo sapiens) (UniProt P05067); experiment: Disaggregation of self-induced amyloid beta (1 to 40) (unknown origin) preformed fibrils assessed as aggregation level at 100 uM after 4 days by UV-visible turbidity method
# Beta-secretase 1 [23] = target: T1, Beta-secretase 1 (Homo sapiens, UniProt P56817); experiment: Inhibition of BACE 1 (unknown origin) at 10 to 50 uM using Rh-EVNLDAEFK-Quencher as substrate after 1 hr by FRET assay relative to control
# [24] = Toxicity in Tetrahymena thermophila assessed as decrease in viability after 48 hrs by MTT assay; type: organism-based; settings: Tetrahymena thermophila cells, read-out: LD50
# [25] = Antioxidant activity assessed as AAPH radical scavenging activity at 1 to 16 uM by ORAC assay; type: functional
# [26] = target: Amyloid-beta precursor protein (Homo sapiens) (UniProt P05067); experiment: Inhibition of self-induced amyloid beta (1 to 40) (unknown origin) fibril aggregation assessed as fluorescence emission at 100 uM measured on day 7 by thioflavin-T based assay
# [27] = target: Amyloid-beta precursor protein (Homo sapiens) (UniProt P05067); experiment: Inhibition of self-induced amyloid beta (1 to 40) (unknown origin) fibril aggregation assessed as aggregation level at 100 uM measured on day 7 by UV-visible turbidity method; parameters: scale not given: the % may be the effect or the level left
# Beta-secretase 1 [28] = target: T1, Beta-secretase 1; experiment: Inhibition of BACE 1 (unknown origin) at 50 uM using Rh-EVNLDAEFK-Quencher as substrate after 1 hr by FRET assay relative to control
# [29] = Inhibition of Cu2+ induced amyloid beta (1 to 40) fibril aggregation assessed as fluorescence emission at 100 uM measured on day 3 by thioflavin-T based assay (reference value: 33.64 +/- 5.80)
# Beta-secretase 1 [30] = target: T1, Beta-secretase 1; experiment: Inhibition of BACE 1 (unknown origin) using 250 nM of Rh-EVNLDAEFK-Quencher as substrate after 1 hr by FRET assay
# Beta-secretase 1 [31] = target: T1, Beta-secretase 1; experiment: Inhibition of BACE 1 (unknown origin) using 500 nM of Rh-EVNLDAEFK-Quencher as substrate after 1 hr by FRET assay
# Amyloid-beta precursor protein (Homo sapiens), sequence (P05067 whole entry): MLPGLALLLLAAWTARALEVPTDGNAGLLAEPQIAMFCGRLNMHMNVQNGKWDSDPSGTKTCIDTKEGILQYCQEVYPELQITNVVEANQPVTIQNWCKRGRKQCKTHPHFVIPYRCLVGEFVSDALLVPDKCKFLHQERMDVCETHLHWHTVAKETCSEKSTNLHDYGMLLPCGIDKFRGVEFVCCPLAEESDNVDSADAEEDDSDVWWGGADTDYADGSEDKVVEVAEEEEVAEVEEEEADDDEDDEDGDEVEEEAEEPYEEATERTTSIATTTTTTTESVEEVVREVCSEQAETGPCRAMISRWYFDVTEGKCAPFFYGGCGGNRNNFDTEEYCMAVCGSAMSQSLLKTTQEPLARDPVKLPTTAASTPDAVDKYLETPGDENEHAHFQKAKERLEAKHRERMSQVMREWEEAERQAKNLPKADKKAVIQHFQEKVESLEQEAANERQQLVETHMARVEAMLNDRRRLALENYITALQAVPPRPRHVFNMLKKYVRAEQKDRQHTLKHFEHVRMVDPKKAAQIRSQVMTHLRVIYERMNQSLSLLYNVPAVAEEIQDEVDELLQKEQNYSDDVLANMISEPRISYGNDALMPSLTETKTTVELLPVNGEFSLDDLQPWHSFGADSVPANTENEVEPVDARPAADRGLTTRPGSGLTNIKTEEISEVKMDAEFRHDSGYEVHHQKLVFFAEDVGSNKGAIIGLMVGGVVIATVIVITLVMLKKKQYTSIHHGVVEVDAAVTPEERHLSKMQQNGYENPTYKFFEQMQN
# T1 sequence (P56817 whole entry): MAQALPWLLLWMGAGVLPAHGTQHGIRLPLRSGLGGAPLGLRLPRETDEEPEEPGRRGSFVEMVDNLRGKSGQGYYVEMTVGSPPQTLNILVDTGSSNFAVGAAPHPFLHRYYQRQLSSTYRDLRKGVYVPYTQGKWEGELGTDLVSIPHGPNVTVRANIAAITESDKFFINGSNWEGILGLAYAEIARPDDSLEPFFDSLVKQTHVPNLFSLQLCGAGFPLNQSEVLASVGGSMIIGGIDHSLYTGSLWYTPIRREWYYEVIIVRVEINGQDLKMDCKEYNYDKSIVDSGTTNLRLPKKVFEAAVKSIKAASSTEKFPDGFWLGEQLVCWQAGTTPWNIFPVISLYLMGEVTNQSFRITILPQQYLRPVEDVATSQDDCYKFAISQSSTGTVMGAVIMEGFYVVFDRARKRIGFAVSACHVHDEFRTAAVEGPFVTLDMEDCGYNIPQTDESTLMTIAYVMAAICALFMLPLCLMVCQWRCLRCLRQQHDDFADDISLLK
SMILES,Activity [1] [%],Flu intensity [2],Activity [3] [%],Activity [4] [%],Flu intensity [5],Flu intensity [6],CC50 at 48 h [9] [µM],Flu intensity [10],Activity [11] [%],Flu intensity [12],Activity [13] [%],Flu intensity [14],Activity [16] [%],inhibition [17] [%],Flu intensity [18],Flu intensity [19],Activity [20] [%],LC50 at 48 h [24] [µM],ORAC (Trolox equivalents) [25],Flu intensity [26],also measured
Oc1ccc(/C=N/CCn2ccc3cccnc32)c(O)c1,44.9,310,59.7,124,106,344,280,233,85.9,185,129,74.3,85.4,71.9,226,219,673,610,8.13,368,fold change (FC) (HEK293): 3.9; Activity [7]: 6 to 33%; logKa [8]: 12.7; Activity [15]: Active; fold change (FC) (Tetrahymena thermophila): 2.5; Activity [21]: 84.2%; Activity [22]: 88.4%; inhibition (Beta-secretase 1 [23]): < 50%; Activity [27]: 94%; inhibition (Beta-secretase 1 [28]): 31.6%; Flu intensity [29]: 227; IC50 (Beta-secretase 1 [30]): 107 µM
Oc1ccc(/C=N/CCn2ccc3ccccc32)c(O)c1,37.6,273,47.5,109,73,298,193,203,71.8,155,112,59,58.6,68.5,213,183,722,556,5.22,336,fold change (FC) (HEK293): 2.7; Activity [7]: 6 to 33%; logKa [8]: 13.4; Activity [15]: Active; fold change (FC) (Tetrahymena thermophila): 2.3; Activity [21]: 73%; Activity [22]: 83.2%; inhibition (Beta-secretase 1 [23]): < 50%; Activity [27]: 86%; IC50 (Beta-secretase 1 [31]): 5.7 µM; inhibition (Beta-secretase 1 [28]): 100%; Flu intensity [29]: 243; IC50 (Beta-secretase 1 [30]): 4.4 µM
O=C1O[C@H]([C@@H](O)CO)C(O)=C1O,,,,,,,,,,,,,,,,,,,62.2,,
Oc1ccc(/C=C/c2cc(O)cc(O)c2)cc1 [RESVERATROL],6.63,272,20.2,108,29.8,251,71.3,65,44.5,27.3,35.9,25.2,23.9,9,230,114,222,240,1.7,294,Activity [27]: 75.2%; Flu intensity [29]: 74.7
Cl.Oc1ccc(/C=N/CCNCCn2cnc3ccccc32)c(O)c1,23.1,165,38.6,65.6,60.4,282,184,106,62.6,95,58.5,48,48.5,93.7,184,160,328,529,1.42,225,fold change (FC) (HEK293): 2.6; Activity [7]: 6 to 33%; logKa [8]: 14.8; Activity [15]: Active; fold change (FC) (Tetrahymena thermophila): 2.2; Activity [21]: 69%; Activity [22]: 72.2%; inhibition (Beta-secretase 1 [23]): < 50%; Activity [27]: 57.5%; IC50 (Beta-secretase 1 [31]): 18.5 µM; inhibition (Beta-secretase 1 [28]): 62.5%; Flu intensity [29]: 110; IC50 (Beta-secretase 1 [30]): 15.6 µM
